Results published in patent US5886033A, “Use of isoxazole and crotonamide derivatives for the treatment of carcinomatous disorders” (Hoechst Aktiengesellschaft, priority 1995, dated 1999).
pIC50: −log10 of the molar value. Structures can show the parent of a compound that is named as a salt. Where two headings read alike, the source gives them in different places.

Legend:
LoVo cells [1] = assay: MTT test on LoVo cells with added uridine; assay type: cell-based, human; settings: for pIC50: Homo sapiens, LoVo, Table 3
Protocol: (§1) 1×10^4 cells per well are inoculated into a 96-well microtiter plate. After 24 h, the test substances are added at various concentrations. Each group consists of 4 wells, the control is only incubated with medium. After 65 h, 50 μl of MTT (3-(4,5-dimethyl-2-thiazolyl)-2,5-diphenyl-2H-tetrazolium bromide; 2.5 mg/ml in PBS) are added and, after 7 h, the supernatant is removed. The color formed by the living cells is dissolved by addition of 100 μl of dimethyl sulfoxide/well. The extinction is measured at 492 nm for each well with the aid of a Multiscan photometer 340 CC (Flow). The cell lines used are obtainable as follows from the American Type Culture Collection: HUV-EC-C is ATCC CRL 1730; A-172 is ATCC CRL 1620; L 1210 is ATCC CCL 219; LoVo is ATCC CCL 229; C 6 is ATCC CCL 107 and a rat glioblastoma cell line.
(§2) The mean value is formed from the 4 wells of a group and the IC50 values are calculated from the dose-response curve using the Software 3.0 (Erithacus Software Ltd.).
The procedure is as in Example 6; uridine is additionally added to the batches.

C 6 = assay: Inhibition of the proliferation of tumor cells (MTT test), C 6; assay type: cell-based, rat
Protocol: (§3) Inhibition of the proliferation of tumor cells (MTT test)
as §1, §2

HUV-EC-C = assay: Inhibition of proliferation (MTT test), HUV-EC-C / HUVEC endothelial cells; assay type: cell-based, human
Protocol: as §3, §1, §2

in vitro cell lines = settings: Peters et al., 1987; cited from earlier work
A-172 = assay: Inhibition of the proliferation of tumor cells (MTT test), A-172; assay type: cell-based, human
Protocol: as §3, §1, §2

LoVo cells [2] = assay: Inhibition of the proliferation of tumor cells (MTT test), LoVo; assay type: cell-based, human
Protocol: as §3, §1, §2

plasma uridine = settings: clinical investigations, cited from earlier work
L1210 = assay: Inhibition of the proliferation of tumor cells (MTT test), L1210; assay type: cell-based; settings: Table 2; L1210, leukemia (mouse)
Protocol: as §3, §1, §2

[3] = test system: pyrimidine and purine nucleotides; settings: cited from earlier work
Human DHODH (spleen) = biological target: T1, Human DHODH (spleen) (Homo sapiens, UniProt Q02127); assay: Human DHODH (spleen) enzyme activity; assay type: biochemical
T1 construct: Human DHODH (spleen) enzyme activity; from tissue; host or cells: human spleen
T1 sequence (Q02127 whole entry): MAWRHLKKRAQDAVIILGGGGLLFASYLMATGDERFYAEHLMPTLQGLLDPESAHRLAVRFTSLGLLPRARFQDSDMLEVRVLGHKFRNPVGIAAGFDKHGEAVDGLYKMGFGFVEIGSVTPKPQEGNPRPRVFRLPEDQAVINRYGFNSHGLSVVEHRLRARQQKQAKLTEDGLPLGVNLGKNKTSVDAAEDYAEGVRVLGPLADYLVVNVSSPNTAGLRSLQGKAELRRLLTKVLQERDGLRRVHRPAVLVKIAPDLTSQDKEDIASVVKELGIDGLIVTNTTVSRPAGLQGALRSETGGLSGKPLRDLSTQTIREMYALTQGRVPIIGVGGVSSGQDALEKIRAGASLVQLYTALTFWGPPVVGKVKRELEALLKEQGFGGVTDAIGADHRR

[4] = Rattus norvegicus, C6, Table 2, C 6, rat glioblastoma, read-out: MTT Test IC50
[5] = Homo sapiens, Endothelial cell, Table 2, HUV-EC-C, endothelial cell, read-out: MTT Test IC50
[6] = Homo sapiens, A 172, Table 2, A-172, glioblastoma, read-out: MTT Test IC50
[7] = Homo sapiens, Table 2, colonic carcinoma, no uridine, read-out: MTT Test IC50
[8] = Rattus norvegicus, C6, Table 4, C 6, read-out: C 6 (tested as described in Example 6, MTT test)
[9] = Homo sapiens, HUVEC, Table 4, HUVEC, read-out: HUVEC (tested as described in Example 6, MTT test)
[10] = Homo sapiens, A 172, Table 4, A172, read-out: A172 (tested as described in Example 6, MTT test)
[11] = Homo sapiens, Table 4, read-out: LoVo (tested as described in Example 6, MTT test)
[12] = human DHODH (spleen), read-out: DHODH IC50

Row | Compound | pIC50 (C 6; [8]) | pIC50 (A-172; [10]) | pIC50 (LoVo cells [2]; [11]) | pIC50 (HUV-EC-C; [9]) | further results
1 | Cc1c(-c2ccc(-c3ccccc3F)cc2)nc2ccc(F)cc2c1C(=O)O [Brequinar, reference compound] | – | – | – | – | pIC50 (LoVo cells [1]; uridine 0 μM): 6.41; pIC50 (LoVo cells [1]; uridine 1000 μM): 3.89; change of the IC50 value on the LoVo cell line on addition of increasing amounts of uridine (LoVo cells [1]; MTT test, in words): massive increase in the IC50 value; pIC50 (C 6; [4]): 5.05; pIC50 (HUV-EC-C; [5]): 5.03; inhibition of growth of in vitro cell lines, reversal by nucleosides (in vitro cell lines): can be abolished by addition of uridine or cytidine, but not by deoxythymidine or deoxycytidine; pIC50 (A-172; [6]): 6.70; pIC50 (LoVo cells [2]; [7]): 6.41; plasma uridine values (plasma uridine; Peters et al., 1988): significantly lowers the plasma uridine values; correlation of in vivo uridine level effects with bone marrow and gastrointestinal tract toxicity (plasma uridine): correlated with the bone marrow and gastrointestinal tract toxicity; pIC50 (L1210): 6.00; depletion of nucleotides ([3]; Schwartsmann et al., 1988): depletion of pyrimidine ribo- and deoxyribonukleotides, but not of purine nucleotides; depletion of dTTP and dCTP ([3]; relative to UTP and CTP, uridine addition): proportional to that of UTP and CTP and can be prevented by the addition of uridine
2 | C#CCCC(O)=C(C#N)C(=O)Nc1ccc(C(F)(F)F)cc1 [Compound 1, N-(4-Trifluoromethylphenyl)-2-cyano-3-hydroxyhept-2-en-6-yne-carboxamide sodium salt] | 4.17 | 4.11 | 3.86 | 3.79 | pIC50 (LoVo cells [1]; uridine 0 μM): 3.77; pIC50 (LoVo cells [1]; uridine 1000 μM): 3.56; pIC50 (C 6; [4]): 4.17; pIC50 (HUV-EC-C; [5]): 3.79; pIC50 (A-172; [6]): 4.11; pIC50 (Human DHODH (spleen)): 6.53; pIC50 (LoVo cells [2]; [7]): 3.86; pIC50 (L1210): 5.04
3 | C=CC(O)=C(C#N)C(=O)Nc1ccc(C(F)(F)F)cc1 [Compound 9] | 4.68 | 3.71 | 3.40 | < 3.40 | –
4 | C=CCC(O)=C(C#N)C(=O)Nc1ccc(C(F)(F)F)cc1 [Compound 11] | 4.24 | 4.26 | 3.80 | 3.73 | –
5 | Cc1cc(NC(=O)C(C#N)=C(O)C2CC2)ccc1C(F)(F)F [Compound 14] | – | – | – | – | pIC50 (C 6; Table 4, C 6, read-out: C 6 (tested as described in Example 6, MTT test)): 5.15; pIC50 (HUV-EC-C; Table 4, HUVEC, read-out: HUVEC (tested as described in Example 6, MTT test)): 3.71; pIC50 (A-172; Table 4, A172, read-out: A172 (tested as described in Example 6, MTT test)): 4.24; pIC50 (LoVo cells [2]; Table 4, read-out: LoVo (tested as described in Example 6, MTT test)): 4.21
6 | Cc1cc(Cl)ccc1Oc1ccc(NC(=O)C(C#N)=C(O)C2CC2)cc1 [Compound 16] | 4.44 | 4.77 | 5.15 | 3.52 | –
7 | C=CCCC(O)=C(C#N)C(=O)Nc1ccc(C(F)(F)F)cc1 [Compound 17] | 3.73 | 4.26 | 4.12 | 3.90 | –
8 | N#CC(C(=O)Nc1ccc(Oc2ccc(F)cc2)cc1)=C(O)C1CCC1 [Compound 18] | 4.08 | 3.72 | 3.96 | 3.80 | –
9 | C=CCC(O)=C(C#N)C(=O)Nc1ccc(SC(F)(F)F)cc1 [Compound 19] | 4.49 | 3.93 | 3.77 | 3.87 | –
10 | N#CC(C(=O)Nc1ccc(Oc2ccc(F)cc2)cc1)=C(O)C1CCCC1 [Compound 20] | 3.74 | 3.80 | 3.92 | < 3.40 | –
11 | C=CCCC(O)=C(C#N)C(=O)Nc1ccc(C)c(C)c1 [Compound 21] | 4.16 | 4.20 | 4.57 | 3.47 | –
12 | C=CCC(O)=C(C#N)C(=O)Nc1ccc(F)cc1 [Compound 22] | 3.99 | < 3.40 | 3.83 | < 3.40 | –
13 | N#CC(C(=O)Nc1ccc(-c2ccccc2)cc1)=C(O)C1CC1 [Compound 24] | – | – | – | – | pIC50 (C 6; Rattus norvegicus, C6, read-out: C 6 (tested as described in Example 6, MTT test)): 4.47; pIC50 (HUV-EC-C; Homo sapiens, HUVEC, read-out: HUVEC (tested as described in Example 6, MTT test)): 4.13; pIC50 (A-172; Homo sapiens, A 172, read-out: A172 (tested as described in Example 6, MTT test)): 4.66; pIC50 (LoVo cells [2]; Homo sapiens, read-out: LoVo (tested as described in Example 6, MTT test)): 5.22
14 | CC(C)=CCCC(O)=C(C#N)C(=O)Nc1ccc(C(F)(F)F)cc1 [Compound 25] | 4.06 | 4.02 | 3.51 | 3.52 | –
15 | CC=CC=CC(O)=C(C#N)C(=O)Nc1ccc(C(F)(F)F)cc1 [Compound 26] | 4.62 | 3.70 | 3.84 | 3.42 | –
16 | C#CCCC(O)=C(C#N)C(=O)Nc1ccc(Cl)cn1 [Compound 27] | 3.90 | 3.85 | 3.82 | < 3.40 | –

Further lines, with some results ahead:

Row | pIC50 (C 6; [8]) | pIC50 (A-172; [10]) | pIC50 (LoVo cells [2]; [11]) | Compound | pIC50 (HUV-EC-C; [9]) | further results
17 | 4.70 | 3.77 | 3.41 | N#CC(C(=O)Nc1ccc(C#N)cc1)=C(O)C1CC1 [Compound 2, 2-Cyano-3-cyclopropyl-3-hydroxyacrylic acid (4-cyanophenyl)amide sodium salt] | 3.44 | pIC50 (LoVo cells [1]; uridine 0 μM): 3.44; pIC50 (LoVo cells [1]; uridine 1000 μM): 3.25; pIC50 (C 6; [4]): 4.70; pIC50 (HUV-EC-C; [5]): 3.44; pIC50 (A-172; [6]): 3.77; pIC50 (Human DHODH (spleen); [12]): 6.20; pIC50 (LoVo cells [2]; [7]): 3.41; pIC50 (L1210): 5.21
18 | 5.30 | 4.52 | 4.47 | N#CC(C(=O)Nc1ccc(C(F)(F)F)cc1)=C(O)C1CC1 [Compound 5] | 4.03 | –
19 | 4.96 | 4.60 | 4.62 | N#CC(C(=O)Nc1ccc(Cl)cc1)=C(O)C1CC1 [Compound 6] | < 3.40 | –
20 | 4.96 | 4.43 | 4.43 | N#CC(C(=O)Nc1ccc(Br)cc1)=C(O)C1CC1 [Compound 7] | 3.57 | –
21 | 4.74 | 4.55 | 4.89 | N#CC(C(=O)Nc1ccc(Oc2ccccc2)cc1)=C(O)C1CC1 [Compound 8] | 3.86 | –
22 | 5.40 | 4.60 | 4.68 | N#CC(C(=O)Nc1ccc(OC(F)(F)F)cc1)=C(O)C1CC1 [Compound 10] | 3.73 | –
23 | 5.22 | 4.37 | 4.26 | Cc1cc(NC(=O)C(C#N)=C(O)C2CC2)ccc1C(F)(F)F [Compound 12] | 3.49 | pIC50 (Human DHODH (spleen); [12]): 6.27
24 | 4.89 | 4.49 | 4.82 | Cc1cc(NC(=O)C(C#N)=C(O)C2CC2)ccc1F [Compound 13] | < 3.40 | –
25 | 5.70 | 4.89 | 4.68 | N#CC(C(=O)Nc1ccc(SC(F)(F)F)cc1)=C(O)C1CC1 [Compound 15] | 4.01 | –
26 | 5.15 | 4.03 | 4.12 | N#CC(C(=O)Nc1ccc(C(F)(F)F)cn1)=C(O)C1CC1 [Compound 23] | < 3.40 | –
